Patent US8937092B2, “Aryl or N-heteroaryl substituted methanesulfonamide derivatives as vanilloid receptor ligands” (Gruenenthal GmbH, priority 2011, dated 2015)

Target: vanilloid receptor 1 (VR1/TRPV1 receptor) (Homo sapiens, UniProt Q8NER1)
Assay: Functional FLIPR Ca2+ influx assay on vanilloid receptor 1, capsaicin (Cap) stimulus
Type: cell-based
Settings: for Ki: Ki from IC50 by Cheng-Prusoff, read-out: (f) Ki (human being) [nM], Cap; for inhibition at 5 µM: read-out: (f) inhibition (human being), Cap, @5 μM
Description: Furthermore, preference may be given to compounds according to the invention that cause a 50 percent displacement of capsaicin, which is present at a concentration of 100 nM, in a FLIPR assay with CHO K1 cells which were transfected with the human VR1 gene at a concentration of less than 2,000 nM, preferably less than 1,000 nM, particularly preferably less than 300 nM, most particularly preferably less than 100 nM, even more preferably less than 75 nM, additionally preferably less than 50 nM, most preferably less than 10 nM.
In the process, the Ca^2+ influx is quantified in the FLIPR assay with the aid of a Ca^2+-sensitive dye (type Fluo-4, Molecular Probes Europe BV, Leiden, the Netherlands) in a fluorescent imaging plate reader (FLIPR, Molecular Devices, Sunnyvale, USA), as described hereinafter.
Pharmacological Methods I. Functional Testing Carried Out on the Vanilloid Receptor 1 (VRI/TRPV1 Receptor) […]
The number of cells in the suspension is set to 3×10^5 per mL and 150 μL of this suspension are in each case introduced into a recess in the cell culture plates coated as described hereinbefore. In the incubator the plates are left for two to three days at 37° C., 5% by volume of CO2 and 95% relative humidity. Subsequently, the cells are loaded with 2 μM of Fluo-4 and 0.01% by volume of Pluronic F127 (Molecular Probes Europe BV, Leiden, the Netherlands) in HBSS buffer (Hank's buffered saline solution, Gibco Invitrogen GmbH, Karlsruhe, Germany) for 30 min at 37° C., washed 3 times with HBSS buffer and after further incubation for 15 minutes at room temperature used for Ca^2+ measurement in a FLIPR assay. The Ca^2+-dependent fluorescence is in this case measured before and after the addition of substances (λex=488 nm, λem=540 nm). Quantification is carried out by measuring the highest fluorescence intensity (FC, fluorescence counts) over time.
The FLIPR protocol consists of 2 substance additions. First the compounds to be tested (10 μM) are pipetted onto the cells and the Ca^2+ influx is compared with the control (capsaicin 10 μM). This provides the result in % activation based on the Ca^2+ signal after the addition of 10 μM of capsaicin (CP). After 5 minutes' incubation, 100 nM of capsaicin are applied and the Ca^2+ influx is also determined.
Desensitising agonists and antagonists lead to suppression of the Ca^2+ influx. The % inhibition is calculated compared to the maximum achievable inhibition with 10 μM of capsazepine.
Triple analyses (n=3) are carried out and repeated in at least 3 independent experiments (N=4).
Starting from the percentage displacement caused by different concentrations of the compounds to be tested of general formula I, IC50 inhibitory concentrations which cause a 50-percent displacement of capsaicin were calculated. K, values for the test substances were obtained by conversion by means of the Cheng-Prusoff equation (Cheng, Prusoff; Biochem. Pharmacol. 22, 3099-3108, 1973).
The affinity of the compounds according to the invention for the vanilloid receptor 1 (VR1/TRPV1 receptor) was determined as described herein before (pharmacological method I).
The value after the “@” symbol indicates the concentration at which the inhibition (as a percentage) was respectively determined.

Compound | Ki [nM] | further results
Cc1cccc(-c2cc(C(C)(C)C)ccc2CNC(=O)C(C)c2ccc(CNS(C)(=O)=O)c(F)c2)c1 (stereo not shown) [Example 21, N-((5-tert-butyl-3′-methylbiphenyl-2-yl)methyl)-2-(3-fluoro-4-(methylsulfonamidomethyl)phenyl)propanamide] | 37 | –
COc1cncc(-c2nc(C(F)(F)F)ccc2CNC(=O)C(C)c2ccc(CNS(C)(=O)=O)c(F)c2)c1 (stereo not shown) [Example 69, 2-(3-fluoro-4-(methylsulfonamidomethyl)phenyl)-N-((5′-methoxy-6-(trifluoromethyl)-2,3′-bipyridin-3-yl)methyl)propanamide] | – | inhibition at 5 µM: 49%
COc1cc(C(C)C(=O)NCc2ccc(C(F)(F)F)nc2-c2cccc(C)c2)ccc1CNS(C)(=O)=O (stereo not shown) [Example 78, 2-(3-methoxy-4-(methylsulfonamidomethyl)phenyl)-N-((2-m-tolyl-6-(trifluoromethyl)pyridin-3-yl)methyl)propanamide] | 73 | –
CC(C(=O)NCc1ccc(C(F)(F)F)nc1-c1ccc(C#N)cc1)c1ccc(CNS(C)(=O)=O)c(F)c1 (stereo not shown) [Example 58, N-((2-(4-cyanophenyl)-6-(trifluoromethyl)pyridin-3-yl)methyl)-2-(3-fluoro-4-(methylsulfonamidomethyl)phenyl)propanamide] | 45 | –
Cc1ccc(F)c(-c2nc(C(F)(F)F)ccc2CNC(=O)C(C)c2ccc(CNS(C)(=O)=O)c(F)c2)c1 (stereo not shown) [Example 37, 2-(3-fluoro-4-(methylsulfonamidomethyl)phenyl)-N-((2-(2-fluoro-5-methylphenyl)-6-(trifluoromethyl)pyridin-3-yl)methyl)propanamide] | 16 | –
CC(C(=O)NCc1ccc(C(F)(F)F)nc1-c1cncc(Cl)c1)c1ccc(CNS(C)(=O)=O)c(F)c1 (stereo not shown) [Example 73, N-((5′-chloro-6-(trifluoromethyl)-2,3′-bipyridin-3-yl)methyl)-2-(3-fluoro-4-(methylsulfonamidomethyl)phenyl)propanamide] | 24 | –
Cc1cccc(-c2nc(C(F)(F)F)ccc2CNC(=O)C(C)c2ccc(CNS(C)(=O)=O)c(F)c2)c1C (stereo not shown) [Example 30, N-((2-(2,3-dimethylphenyl)-6-(trifluoromethyl)pyridin-3-yl)methyl)-2-(3-fluoro-4-(methylsulfonamidomethyl)phenyl)propanamide] | 41 | –
CC(C(=O)NCc1ccc(C(F)(F)F)nc1-c1cccc(F)c1F)c1ccc(CNS(C)(=O)=O)c(F)c1 (stereo not shown) [Example 9, N-((2-(2,3-difluorophenyl)-6-(trifluoromethyl)pyridin-3-yl)methyl)-2-(3-fluoro-4-(methylsulfonamidomethyl)phenyl)propanamide] | 47 | –
CC(C(=O)NCc1ccc(C(F)(F)F)nc1-c1ccccc1F)c1ccc(CNS(C)(=O)=O)c(F)c1 (stereo not shown) [Example 6, 2-(3-fluoro-4-(methylsulfonamidomethyl)phenyl)-N-((2-(2-fluorophenyl)-6-(trifluoromethyl)pyridin-3-yl)methyl)propanamide] | – | inhibition at 5 µM: 37%
COc1ccc(C)cc1-c1nc(C(F)(F)F)ccc1CNC(=O)C(C)c1ccc(CNS(C)(=O)=O)c(F)c1 (stereo not shown) [Example 45, 2-(3-fluoro-4-(methylsulfonamidomethyl)phenyl)-N-((2-(2-methoxy-5-methylphenyl)-6-(trifluoromethyl)pyridin-3-yl)methyl)propanamide] | – | inhibition at 1 µM (inhibition at 1 μM, read-out: (f) inhibition (human being), Cap, @1 μM): 15%
COc1ccccc1-c1nc(C(F)(F)F)ccc1CNC(=O)C(C)c1ccc(CNS(C)(=O)=O)c(F)c1 (stereo not shown) [Example 60, 2-(3-fluoro-4-(methylsulfonamidomethyl)phenyl)-N-((2-(2-methoxyphenyl)-6-(trifluoromethyl)pyridin-3-yl)methyl)propanamide] | 43 | –
C[C@@H](C(=O)NCc1ccc(C(F)(F)F)nc1-c1ccc(F)c(Cl)c1)c1ccc(CNS(C)(=O)=O)c(F)c1 [Example 18, (R)—N-((2-(3-chloro-4-fluorophenyl)-6-(trifluoromethyl)pyridin-3-yl)methyl)-2-(3-fluoro-4-(methylsulfonamidomethyl)phenyl)propanamide] | – | inhibition at 5 µM: 42%
COc1c(C)cccc1-c1nc(C(F)(F)F)ccc1CNC(=O)C(C)c1ccc(CNS(C)(=O)=O)c(F)c1 (stereo not shown) [Example 42, 2-(3-fluoro-4-(methylsulfonamidomethyl)phenyl)-N-((2-(2-methoxy-3-methylphenyl)-6-(trifluoromethyl)pyridin-3-yl)methyl)propanamide] | 65 | –
Cc1cccc(-c2nc(C(F)(F)F)ccc2CNC(=O)C(C)c2ccc(CNS(N)(=O)=O)cc2)c1 (stereo not shown) [Example 88, 2-(4-((sulfamoylamino)methyl)phenyl)-N-((2-m-tolyl-6-(trifluoromethyl)pyridin-3-yl)methyl)propanamide] | 7 | –

More lines, main results first:

Ki [nM] | Compound | further results
7 | CC(C(=O)NCc1ccc(C(F)(F)F)nc1-c1cccc(C(F)F)c1)c1ccc(CNS(C)(=O)=O)c(F)c1 (stereo not shown) [Example 52, N-((2-(3-(difluoromethyl)phenyl)-6-(trifluoromethyl)pyridin-3-yl)methyl)-2-(3-fluoro-4-(methylsulfonamidomethyl)phenyl)propanamide] | –
3 | Cc1cccc(-c2nc(C(F)(F)F)ccc2CNC(=O)C(C)c2ccc(CNS(C)(=O)=O)c(Cl)c2)c1 (stereo not shown) [Example 77, 2-(3-chloro-4-(methylsulfonamidomethyl)phenyl)-N-((2-m-tolyl-6-(trifluoromethyl)pyridin-3-yl)methyl)propanamide] | –
66 | Cc1cc(-c2nc(C(F)(F)F)ccc2CNC(=O)C(C)c2ccc(CNS(C)(=O)=O)c(F)c2)ccc1C#N (stereo not shown) [Example 39, N-((2-(4-cyano-3-methylphenyl)-6-(trifluoromethyl)pyridin-3-yl)methyl)-2-(3-fluoro-4-(methylsulfonamidomethyl)phenyl)propanamide] | –
1 | CC(C(=O)NCc1ccc(C(F)(F)F)nc1-c1cccc(C(C)(C)C)c1)c1ccc(CNS(C)(=O)=O)c(F)c1 (stereo not shown) [Example 51, N-((2-(3-tert-butylphenyl)-6-(trifluoromethyl)pyridin-3-yl)methyl)-2-(3-fluoro-4-(methylsulfonamidomethyl)phenyl)propanamide] | –
28 | Cc1ccc(-c2nc(C(F)(F)F)ccc2CNC(=O)C(C)c2ccc(CNS(C)(=O)=O)c(F)c2)cc1C (stereo not shown) [Example 31, N-((2-(3,4-dimethylphenyl)-6-(trifluoromethyl)pyridin-3-yl)methyl)-2-(3-fluoro-4-(methylsulfonamidomethyl)phenyl)propanamide] | –
12 | CCOc1ccc(-c2nc(C(F)(F)F)ccc2CNC(=O)C(C)c2ccc(CNS(C)(=O)=O)c(F)c2)cc1C (stereo not shown) [Example 46, N-((2-(4-ethoxy-3-methylphenyl)-6-(trifluoromethyl)pyridin-3-yl)methyl)-2-(3-fluoro-4-(methylsulfonamidomethyl)phenyl)propanamide] | –
7 | Cc1cc(-c2nc(C(F)(F)F)ccc2CNC(=O)C(C)c2ccc(CNS(C)(=O)=O)c(F)c2)ccc1F (stereo not shown) [Example 35, N-((2-(4-fluoro-3-methylphenyl)-6-(trifluoromethyl)pyridin-3-yl)methyl)-2-(3-fluoro-4-(methylsulfonamidomethyl)phenyl)propanamide] | –
28 | CCOc1cccc(-c2nc(C(F)(F)F)ccc2CNC(=O)C(C)c2ccc(CNS(C)(=O)=O)c(F)c2)c1 (stereo not shown) [Example 64, N-((2-(3-ethoxyphenyl)-6-(trifluoromethyl)pyridin-3-yl)methyl)-2-(3-fluoro-4-(methylsulfonamidomethyl)phenyl)propanamide] | –
